The target of data set [1] is T1, Recombinant human GCPII enzyme (Homo sapiens (Human), UniProt Q04609). Description: GCPII activity assay (IC50, radiolabelled NAAG hydrolysis). Particulars: for GCPII inhibitory potency (in words): SAR of L-DOPA analogs. In kind it is biochemical.
Data set [2] can be described thus: Solubility of D-DOPA in intranasal dosing vehicle. In kind it is physicochemical.
Data set [3] is described as follows: Time-dependent PK of D-DOPA with or without sodium benzoate (Example 2). In kind it is in vivo, CD-1 mice. As for the experimental part: All of the formulations were freshly prepared prior to the dosing. […] Tissue and plasma collection were carried out as described above. […] Van […] et al., 2020; Wang et al., 2015. While D-/L-DOPA required derivatization with acetic anhydride, caffeic acid was analyzed using a single step protein precipitation method. […] Plasma and brain tissue samples were processed by matching the dilutions of calibration standards of the respective tissue. […] The solutions were vortexed for 15 secs and then allowed to sit at room temperature for 45 mins. These mixtures were vortexed again for 10 sec and centrifuged at 10,000 g for 10 mins to collect the supernatant. A 50 μL aliquot of the supernatant was transferred to 250 μL polypropylene autosampler vials sealed with Teflon caps. 2 μL of the sample was injected into the LC/MS/MS system for analysis. Chromatographic analysis was performed using Thermo Scientific Vanquish UPLC system consisting of an analytical pump and an autosampler coupled with a […] spectrometer. For all analytes, the mobile phase used for the chromatographic separation composed of 0.1% formic acid in acetonitrile and 0.1% formic acid in water delivered as a gradient while pumping a flow rate of 0.400 mL/min. […] The analyte was monitored using ThermoScientific […] triple-quadrupole mass-spectrometric detector equipped with an electrospray interface, and operated in negative ion mode. The instrument was controlled by Thermo Scientific Xcalibur (version 4.2.47) software. […] Plasma concentrations (nmol/mL) and brain tissue concentrations (nmol/g) were determined and plots of mean plasma or brain concentrations versus time were constructed.

Data set [4] has as its target GCPII activity in the brain (Mus musculus (Mouse), UniProt O35409). Briefly: GCPII target engagement: GCPII activity in brain after dosing. In kind it is in vivo, CD1 mouse.
Data set [5] deals with T1, Recombinant human GCPII enzyme. Briefly: biochemical.
The nature of data set [6]: Pharmacokinetics of D-DOPA in mouse plasma and brain (IV, PO, IN; Example 1). In kind it is in vivo, CD1 mice. Particulars: for Kp: brain/plasma, read-out: AUCBrain/Plasma (brain penetration index).
For data set [7], the target named is T1, Recombinant human GCPII enzyme. Particulars: NAAG saturation, D-DOPA 0-400 nM.
A short description of data set [8]: In vitro metabolic stability in mouse plasma and brain homogenate. In kind it is in vitro ADME. The conditions noted are these: 10 μM, 1 h. As for the experimental part:
Zimmermann et al., 2018. For the brain homogenates, washed tissues were diluted 10-fold in 0.1 M potassium phosphate buffer and homogenized using a probe sonicator. Crude homogenate and plasma were aliquoted to 1 mL and spiked with a final assay concentration of 10 μM of the respective catechol followed by incubation in an orbital shaker at 37° C. for 1 h (in triplicate). An aliquot from each incubated homogenate was quenched with three volumes of acetonitrile containing the internal standard (IS; losartan: […]) at predetermined time points (0, 30, 60 min). Samples were vortex-mixed for 30 secs and centrifuged at 10,000×g for 10 min at 4° C.
Disappearance of respective catechol was monitored on a Dionex Ultimate 3000 ultra-high-performance LC system coupled with Q Exactive Focus orbitrap mass spectrometer (Thermo Fisher Scientific Inc., Waltham MA). The separation of analytes was achieved using the Agilent Eclipse Plus column (100×2.1 mm i.d.; maintained at 35° C.) packed with a 1.8 μm C18 stationary phase. The mobile phase consisted of 0.1% formic acid in water and 0.1% formic acid in acetonitrile. Pumps were operated at a flow rate of 0.4 mL/min for 9 min using gradient elution. […] Quantification of the compounds was performed in the full-scan mode (from m/z 50 to 1600) by comparing t=0 samples with t=30- and 60-min samples.

A short description of data set [9]: Mouse two-point oral pharmacokinetic screening. Particulars: in vivo, 50 mg/kg. Set-up: species or system CD-1 mice. As for the experimental part: Male CD-1 mice between 25-30 g were obtained from Harlan and maintained on a 12 h light-dark cycle with ad libitum access to food and water. […] All of the formulations were freshly prepared prior to the dosing. […] For the collection of plasma and brain tissue, animals were euthanized with CO2, and blood samples were collected in heparinized microtubes by cardiac puncture. Brains were dissected and immediately flash frozen (-80° C.). […] Van […] et al., 2020; Wang et al., 2015. While D-/L-DOPA required derivatization with acetic anhydride, caffeic acid was analyzed using a single step protein precipitation method. […] Plasma and brain tissue samples were processed by matching the dilutions of calibration standards of the respective tissue. […] The solutions were vortexed for 15 secs and then allowed to sit at room temperature for 45 mins. These mixtures were vortexed again for 10 sec and centrifuged at 10,000 g for 10 mins to collect the supernatant. A 50 μL aliquot of the supernatant was transferred to 250 μL polypropylene autosampler vials sealed with Teflon caps. 2 μL of the sample was injected into the LC/MS/MS system for analysis. […] Then, 2 μL of the sample was analyzed using LC/MS/MS system as mentioned above. Plasma concentrations (nmol/mL) and brain tissue concentrations (nmol/g) were determined and plots of mean plasma or brain concentrations versus time were constructed.

[10] abbreviates: Table 2-1, human recombinant GCPII.
Setting [11] is: Table 1, catechol scaffolds for GCPII inhibition.
[12] abbreviates: PO 50 mg/kg + sodium benzoate 400 mg/kg IP, brain.

“And” between values parts separate entries of the source, which are not always exact repeats. Equal entries are not always repeated. “Also recorded” adds a separate entry of the source. Where two headings read alike, the source gives them in different places.

T1 sequence (Q04609 whole entry): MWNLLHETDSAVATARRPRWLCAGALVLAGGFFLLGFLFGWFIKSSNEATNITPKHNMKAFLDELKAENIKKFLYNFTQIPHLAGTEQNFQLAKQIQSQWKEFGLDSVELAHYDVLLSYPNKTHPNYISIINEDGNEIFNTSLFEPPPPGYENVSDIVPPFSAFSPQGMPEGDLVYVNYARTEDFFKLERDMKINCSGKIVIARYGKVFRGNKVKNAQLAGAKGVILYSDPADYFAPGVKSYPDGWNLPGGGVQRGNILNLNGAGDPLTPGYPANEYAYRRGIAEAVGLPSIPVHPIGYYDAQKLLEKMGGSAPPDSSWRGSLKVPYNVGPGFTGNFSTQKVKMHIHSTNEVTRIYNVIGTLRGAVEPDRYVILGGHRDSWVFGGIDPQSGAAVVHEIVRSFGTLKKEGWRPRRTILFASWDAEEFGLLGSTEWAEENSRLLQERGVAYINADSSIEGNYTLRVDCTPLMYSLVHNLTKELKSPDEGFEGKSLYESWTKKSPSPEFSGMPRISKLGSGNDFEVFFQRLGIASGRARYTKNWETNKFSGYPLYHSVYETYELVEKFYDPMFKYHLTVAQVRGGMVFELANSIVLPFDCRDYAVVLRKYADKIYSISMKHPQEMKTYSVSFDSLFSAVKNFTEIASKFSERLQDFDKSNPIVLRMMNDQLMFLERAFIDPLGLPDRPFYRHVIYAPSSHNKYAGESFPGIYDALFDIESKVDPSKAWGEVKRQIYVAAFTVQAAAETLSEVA
Sequence of GCPII activity in the brain (O35409 whole entry): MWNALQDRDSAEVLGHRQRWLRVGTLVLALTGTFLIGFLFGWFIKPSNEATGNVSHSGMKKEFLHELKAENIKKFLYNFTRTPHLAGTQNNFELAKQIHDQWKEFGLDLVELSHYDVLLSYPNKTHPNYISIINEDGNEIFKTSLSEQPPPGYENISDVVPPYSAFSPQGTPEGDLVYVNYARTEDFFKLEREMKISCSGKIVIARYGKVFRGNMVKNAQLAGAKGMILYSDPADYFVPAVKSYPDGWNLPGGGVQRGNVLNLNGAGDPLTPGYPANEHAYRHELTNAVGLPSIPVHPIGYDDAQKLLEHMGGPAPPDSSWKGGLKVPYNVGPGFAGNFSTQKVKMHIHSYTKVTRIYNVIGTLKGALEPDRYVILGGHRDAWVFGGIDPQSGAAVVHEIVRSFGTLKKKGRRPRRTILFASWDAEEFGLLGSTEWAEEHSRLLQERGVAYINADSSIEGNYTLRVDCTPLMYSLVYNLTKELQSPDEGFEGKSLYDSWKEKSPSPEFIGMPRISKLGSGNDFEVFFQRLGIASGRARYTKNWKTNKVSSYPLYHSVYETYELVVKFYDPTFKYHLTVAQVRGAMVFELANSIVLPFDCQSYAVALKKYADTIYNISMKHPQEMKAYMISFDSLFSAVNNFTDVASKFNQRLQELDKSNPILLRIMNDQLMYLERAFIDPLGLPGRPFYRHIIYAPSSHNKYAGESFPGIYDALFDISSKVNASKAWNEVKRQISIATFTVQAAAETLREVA

For `CC(=O)N[C@@H](Cc1ccc(O)c(O)c1)C(=O)O` [Compound 2-6], the “GCPII inhibitory potency (in words)” value in data set [1] was “loss of potency”. Also, in data set [1] (setting [10]), the IC50 stood at 20000 nM.

Consider `N[C@@H](Cc1ccc(O)c(O)c1)C(=O)O` [L-DOPA], for which, in data set [1], the “GCPII inhibitory potency (in words)” value is listed as “sub-micromolar potencies; also recorded: submicromolar inhibitor of GCPII”. Besides, the IC50 came to 400 nM in data set [1] (setting [11]) and 600 nM in data set [1] (setting [10]).

Turning to `C[C@](N)(Cc1ccc(O)c(O)c1)C(=O)O` [Compound 2-5], the “GCPII inhibitory potency (in words)” value in data set [1] is reported as “loss of potency”. Moreover, the IC50 in data set [1] (setting [10]) is over 100000 nM.

With `O=C(O)/C=C/c1ccc(O)c(O)c1` [Caffeic acid], the 50% inhibitory concentration (IC50) in data set [1] (GCPII) worked out at 300 nM; in data set [1] (setting [11]) it was 100 nM. Further, the “GCPII inhibitory potency (in words)” value in [1] is reported as “sub-micromolar potencies”.

In the case of `N[C@H](Cc1ccc(O)c(O)c1)C(=O)O` [D-DOPA, D-3,4-dihydroxyphenylalanine], the solubility in vehicle entry in data set [2] is “poor solubility”. In addition, in data set [1] (GCPII), the IC50 amounted to 200 nM. For the same molecule, the “GCPII inhibitory potency (in words)” value in data set [1] is on record as “sub-micromolar potencies”. Moreover, the Kp was 0.03 in data set [3] (CD-1, mouse, brain/plasma, PO 50 mg/kg + sodium benzoate 400 mg/kg IP, read-out: brain penetration index); 0.051 in data set [6] (CD1, mouse, other: intranasal, 3.4 mg/kg, IN 3.4 mg/kg); under 0.05 in [6] (CD1, mouse, po, 30 mg/kg, PO 30 mg/kg). For the same molecule, the AUC in data set [3] (CD-1, mouse, plasma, iv, 10 mg/kg, IV 10 mg/kg, plasma, read-out: AUCIV) turned out to be 30.5 µM·h; in [3] (CD-1, mouse, plasma, oral, PO 50 mg/kg + sodium benzoate 400 mg/kg IP, plasma, read-out: AUCPlasma), 185 µM·h; in [3] (CD-1, mouse, plasma, po, 50 mg/kg, PO 50 mg/kg + sodium benzoate 400 mg/kg IP, plasma, read-out: AUCPlasma) it was 185 µM·h; in data set [3] (CD-1, mouse, plasma, po, 50 mg/kg, PO 50 mg/kg monotherapy, plasma, read-out: AUCPO-plasma), 72.7 µM·h. Further, the Cmax in data set [3] (CD-1, mouse, PO 50 mg/kg monotherapy, brain, read-out: Cmax) was 1.74 µM; in [3] (setting [12]) it was 3.2 nmol/g and 3.20 nmol/g; in data set [3] (PO 50 mg/kg + sodium benzoate 400 mg/kg IP, plasma, read-out: Cmax), 151 µM; in [3] (PO 50 mg/kg monotherapy, brain) it was 1.74 nmol/g; in data set [6] (CD1, mouse, inhaled or intranasal, IN 3.4 mg/kg, plasma, read-out: Cmax), 4.45 ± 0.971 µM; in data set [6] (CD1, mouse, PO 30 mg/kg, plasma, read-out: Cmax), 43.1 ± 2.58 µM. In addition, the Cmax in [6] (IN 3.4 mg/kg, brain) was 0.102 ± 0.00823 nmol/g; in data set [6] (PO 30 mg/kg, brain), 0.472 ± 0.124 nmol/g; in [6] (mouse, IV 10 mg/kg, plasma, CD1 mice, read-out: Cmax), 61.1 ± 5.09 µM. Also, the “time brain levels stayed >IC50 value of 0.2 μM” value in data set [3] (PO 50 mg/kg + sodium benzoate 400 mg/kg IP) is listed as “over 3 h”. Moreover, the AUCBrain in [3] (setting [12]) amounted to 5.48 nmol·h/g. The “time brain concentrations were >IC50” value in data set [3] (PO 50 mg/kg monotherapy) is reported as “up to 1 h”. Moreover, in data set [3] (PO 50 mg/kg monotherapy, brain), the AUCPO-Brain stood at 2.42 nmol·h/g. The Tmax is 30 min in data set [3] (PO 50 mg/kg monotherapy, brain); at most 0.0833 h in data set [6] (CD1, mouse, plasma, iv, 10 mg/kg, IV 10 mg/kg, plasma, read-out: Tmax); 0.0833 h in [6] (CD1, mouse, plasma, iv, 10 mg/kg, IV 10 mg/kg, plasma, read-out: Tmax (h)); 0.250 h in data set [6] (IN 3.4 mg/kg, plasma). For the same molecule, the “oral bioavailability (AUCPO/IV)” value in data set [3] (PO 50 mg/kg vs IV 10 mg/kg) stood at 47.7%. Also, the “enhancement in both plasma and brain exposures” value in [3] (combination with sodium benzoate vs D-DOPA alone) is over 200%. Also, the “GCPII activity in brain (cortex)” value in data set [4] (PO 30 mg/kg, 1 h post dose) was “significant inhibition of GCPII activity”. In addition, the “GCPII activity in brain” value is reported as “significantly outperformed D-DOPA alone; also recorded: significant inhibition of GCPII activity; also recorded: significantly outperformed D-DOPA mono-therapy” in data set [4] (PO 50 mg/kg + sodium benzoate 400 mg/kg IP, 30 min); “significant inhibition of GCPII activity” in data set [4] (PO 50 mg/kg monotherapy, 30 min, vs untreated); “insufficient exposures to the brain to affect GCP II activity” in data set [4] (intranasal dosing). In data set [5], the Ki was about 400 nM. Besides, the AUC0-t is 2.7 ± 0.508 µM·h in [6] (CD1, mouse, plasma, inhaled or intranasal, 3.4 mg/kg, IN 3.4 mg/kg, plasma, read-out: AUC0-t); 30.5 ± 2.04 µM·h in data set [6] (CD1, mouse, plasma, iv, 10 mg/kg, IV 10 mg/kg, plasma, read-out: AUC0-t); 0.139 ± 0.0268 nmol·h/g in data set [6] (IN 3.4 mg/kg, brain); 1.09 ± 0.103 nmol·h/g in data set [6] (PO 30 mg/kg, brain); 32.92 ± 0.731 µM·h in [6] (PO 30 mg/kg, plasma). For the same molecule, the bioavailability in [6] (CD1, mouse, plasma, PO 30 mg/kg vs IV 10 mg/kg, read-out: Bioavailability (% F)) came to 36%. In addition, the mode of inhibition result in data set [7] is “noncompetitive, allosteric inhibitor of GCPII”. Besides, in [8], the “metabolic stability (in words)” value is listed as “good metabolic stability; also recorded: superior in vitro stability”. Moreover, the “plasma and brain exposure (in words)” value in data set [9] is “higher plasma and brain exposure”.

`COc1ccc(C[C@H](N)C(=O)O)cc1OC` [Compound 2-3]: the “GCPII inhibitory potency (in words)” value in [1] was “substantial loss of potency”. Moreover, the IC50 in data set [1] (setting [10]) was over 100000 nM.

On to `N[C@@H](Cc1ccc(O)cc1)C(=O)O` [Compound 2-2, Tyr], for which the “GCPII inhibitory potency (in words)” value in [1] is listed as “substantial loss of potency”. Further, the IC50 in data set [1] (setting [10]) came to 100000 nM.

As to `NCCc1ccc(O)c(O)c1` [Compound 2-7, Dopamine], the “GCPII inhibitory potency (in words)” value in [1] is reported as “loss of potency”. Moreover, the IC50 in [1] (setting [10]) was over 100000 nM.

As for `NC(Cc1ccc(=O)n(O)c1)C(=O)O` (stereo not drawn) [Compound 2-4], in data set [1], the “GCPII inhibitory potency (in words)” value is reported as “complete loss of potency”. Further, the IC50 in [1] (setting [10]) is over 100000 nM.

As for `O=C(O)CCc1ccc(O)c(O)c1` [Compound 2-8], the half-inhibitory concentration (IC50) in data set [1] (setting [10]) is 4000 nM. Also, the “decrease in inhibitory potency” value in [1] (relative to L-DOPA) is 6.7 fold.

The IC50 is the concentration needed to halve the response being measured. For orientation: Tmax means the time from dosing to the highest level. The term Ki denotes a dissociation constant, usually derived from enzyme kinetics or from competition with a known ligand. For orientation: bioavailability means dose-corrected exposure relative to a reference, in per cent.
